Like-named read-outs stand apart in the source and are kept apart here.
Experiments:
Type in all cases: cell-based
HIF-1α = HIF-1α transactivation assay in NIH-3T3-EPO-Luc fibroblast cells; conditions: for EC50 / Efficacy HIF-1α (IRA coefficient): 6 h stimulation; for EC50: read-out: Potency EC50 HIF-1α; for Efficacy HIF-1α (IRA coefficient): relative to 150 μM DFX
Protocol: To investigate the biological activities of the different compounds, HIF-1α transactivation assays were performed either in NIH-3T3-EPO-Luc cells (Table II) or in HaCaT-EPO-luc cells (FIG. 2). The NIH3T3-EPO-luc and HaCaT-EPO-luc cells have been stably transfected with the plasmid Epo-Luc plasmid. The EPO-Hypoxia Response Element (HRE)-luciferase reporter plasmid contains three copies of the HRE consensus sequence from the promoter of the erythropoietin gene fused to the luciferase gene. NIH3T3-EPO-luc cells were maintained at 37° C. in a humidified atmosphere containing 5% CO2 in DMEM supplemented with 10% fetal calf serum (FBS), and 1% (v/v) penicillin/streptomycin. DFX was purchased from Sigma-Aldrich (USA). Cells (1×10^4/well in 96 well plates) were seeded the day before the assay. […] After six hours of stimulation the cells were lysed in 25 mM Tris-phosphate pH 7.8, 8 mM MgCl2, 1 mM DTT, 1% Triton X-100, and 7% glycerol during 15 min at RT in a horizontal shaker. Luciferase activity is measured using a microplate luminometer (Berthold) following the instructions of the luciferase assay kit (Promega, Madison, Wis., USA).

NF-κB = NF-κB inhibition in NIH-3T3-KBF-Luc cells stimulated with TNFα; conditions: for IC50: TNFα 30 ng/ml, 6 h
Protocol: To further study the target selectivity of the compounds described in the present invention the effect of the natural triterpenoids (OA; BA, UA, and MA), compounds II to XV of Formula (I) disclosed in present invention, and of comparative compound CDDO-Me on NF-κB inhibition, STAT-3 inhibition, Nrf2 activation and TGR5 activation was analyzed. For this study cell lines NIH-3T3-KBF-Luc, HeLa-STAT3-Luc, HaCaT-ARE-Luc and CHO-TGR5-CRE-luc were used respectively. The NIH3T3-KBF-Luc cell line stably transfected with the plasmid KBF-Luc plasmid, which contains three copies of NF-κB binding site (from major histocompatibility complex promoter), fused to a minimal simian virus 40 promoter driving the luciferase gene. Cells (1×10^4/well) were seeded in 96-well plates, treated with increasing concentrations of the compounds II to XV for 15 min and then stimulated with 30 ng/ml TNFα. After 6 h the luciferase activity in the cell lysates was measured as indicated above.

STAT3 = STAT3 inhibition in HeLa-STAT3-Luc cells stimulated with IFN-γ; conditions: for IC50: IFN-γ 25 IU/ml, 6 h
Protocol: (§1) The HeLa-STAT3-luc cells stably transfected with the plasmid 4×M67 pTATA TK-Luc. Cells (20×10^3 cells/ml) were seeded in 96-well plates, treated with increasing concentrations of the compounds II to XIV, and of comparative compound CDDO-Me, for 15 min and then stimulated with IFN-γ 25 IU/ml. After 6 h the luciferase activity in the cell lysates was measured as indicated above. […] The HaCaT-ARE-Luc cell line contains the Nqo1 Antioxidant Response Element (ARE)-Luc reporter plasmid. ARE is activated by all members of the CNC family of factors (Nrf1, Nrf2, Nrf3 and p45 NF-E2). The cells were cultivated in 96-well plates at the concentration of 25×10^3 cells/well in a CO2 incubator at 37° C. For induction of Nrf2 activation the cells were treated with increasing concentrations of the compounds II to XV, and of comparative compound CDDO-Me, for 6 h. As a positive control the cells were treated with 0.02 mM of the antioxidant Tert-butyl-hydroquinone (TBHQ). Luciferase activity in the cell lysates was measured as indicated above and the EC50 calculated (Table III). The CHO-TGR5-CRE-Luc cells stably transfected with the pTGR5 and CRE-Luc. The CRE-responsive luciferase construct encodes the firefly luciferase reporter gene under the control of a minimal (m)CMV promoter and tandem repeats of the CRE transcriptional response element (TRE) and is useful to monitor cAMP signaling pathways activated by TGR5 agonists. Cells (1×10^4/well) were seeded in 96-well plates, treated with increasing concentrations of the compounds II to XV and CDDO-Me, for 6 h. As a positive control the cells were treated with 10 μM of LCA (lithocholic acid). Luciferase activity in the cell lysates was measured as indicated above and the EC50 calculated (Table III).

Nrf2 [1] = assay: Nrf2 activation/inhibition in HaCaT-ARE-Luc cells; conditions: for EC50: 6 h
Protocol: as §1

TGR5 = TGR5 activation in CHO-TGR5-CRE-Luc cells; conditions: for EC50: 6 h
Protocol: The CHO-TGR5-CRE-Luc cells stably transfected with the pTGR5 and CRE-Luc. […] As a positive control the cells were treated with 10 μM of LCA (lithocholic acid). Luciferase activity in the cell lysates was measured as indicated above and the EC50 calculated (Table III).

Nrf2 [2] = assay: Nrf2 activation/inhibition in HaCaT-ARE-Luc cells

SMILES | IC50 (NF-κB) [µM] | IC50 (STAT3) [µM] | EC50 (TGR5) [µM] | EC50 (HIF-1α; Fibroblast) [µM] | EC50 (Nrf2 [1]) [µM] | IC50 (Nrf2 [2]) [µM] | activation of the EPO promoter as a surrogate marker of HIF-1α pathway activation (in words) (HIF-1α) | inhibition of the NF-κB pathway induced by TNFα (in words) (NF-κB) | inhibition of the STAT3 pathway induced by IFNγ (in words) (STAT3) | activation of the Nrf2 pathway (in words) (Nrf2 [1]) | Efficacy HIF-1α (IRA coefficient) (HIF-1α) | EC50 (HIF-1α) [µM] | agonistic TGR5 activity (in words) (TGR5)
C=C(C)[C@@H]1CC[C@]2(C(=O)O)CC[C@]3(C)[C@H](CC[C@@H]4[C@@]5(C)CC[C@H](O)C(C)(C)[C@@H]5CC[C@]43C)[C@@H]12 [Betulinic acid, reference compound] | > 50 | > 50 | 22.2 | > 50 | 9.02 | > 50 | – | – | – | – | – | – | –
COC(=O)[C@]12CCC(C)(C)C[C@H]1[C@H]1C(=O)C=C3[C@@]4(C)C=C(C#N)C(=O)C(C)(C)[C@@H]4CC[C@@]3(C)[C@]1(C)CC2 [CDDO—Me, 2-Cyano-3,12-dioxo-oleana-1,9(11)-dien-28-oic acid methyl ester, reference compound] | 1.2 | 2.38 | > 50 | > 50 | 40.9 | 0.06 | does not result in activation of the HIF pathway | clearly inhibited | clearly inhibited | activated the Nrf2 pathway | – | – | –
CC1(C)CC[C@]2(C(=O)NO)CC[C@]3(C)C(=CC[C@@H]4[C@@]5(C)CC[C@H](O)C(C)(C)[C@@H]5CC[C@]43C)[C@@H]2C1 [Compound II, (3β) 3-Hydroxy-N-hydroxy-olean-12-en-28-amide] | > 50 | > 50 | > 50 | 16.4 | > 50 | > 50 | – | – | – | – | 0.39 | – | –
CC1(C)CC[C@]2(C(=O)NO)CC[C@]3(C)C(=CC[C@@H]4[C@@]5(C)CC/C(=N\O)C(C)(C)[C@@H]5CC[C@]43C)[C@@H]2C1 [Compound III, 3-Hydroxyimino-N-hydroxy-olean-12-en-28-amide] | > 50 | > 50 | > 50 | 3.83 | 23.9 | > 50 | – | – | – | – | 0.43 | – | –
CC1(C)CC[C@]2(C(=O)NO)CC[C@]3(C)C(=CC(=O)[C@@H]4[C@@]5(C)CC[C@H](O)C(C)(C)[C@@H]5CC[C@]43C)[C@@H]2C1 [Compound IV, (3β) 3-Hydroxy-11-oxo-olean-12-en-N-hydroxy-28-amide] | > 50 | > 50 | > 50 | 11.4 | 10 | > 50 | – | – | – | – | 0.15 | – | –
C=C(C)[C@@H]1CC[C@]2(C(=O)NO)CC[C@]3(C)[C@H](CC[C@@H]4[C@@]5(C)Cc6cn[nH]c6C(C)(C)[C@@H]5CC[C@]43C)[C@@H]12 [Compound IX, 1′H-Lup-20(29)-eno[3,2-c]pyrazol-N-hydroxy-28-amide] | – | – | – | 2.41 | – | – | – | – | – | – | 0.34 | – | –
C=C(C)[C@@H]1CC[C@]2(C(=O)NO)CC[C@]3(C)[C@H](CC[C@@H]4[C@@]5(C)Cc6cnoc6C(C)(C)[C@@H]5CC[C@]43C)[C@@H]12 [Compound VIII, Lup-2-eno[2,3-d]isoxazol-N-hydroxy-28-amide] | > 50 | > 50 | 9.62 | 2.58 | > 50 | > 50 | – | – | – | – | 0.55 | – | showed agonistic TGR5 activity
C=C(C)[C@@H]1CC[C@]2(C(=O)NO)CC[C@]3(C)[C@H](CC[C@@H]4[C@@]5(C)CC=CC(C)(C)[C@@H]5CC[C@]43C)[C@@H]12 [Compound X, Lupa-2,20(29)-dien-N-hydroxy-28-amide] | > 50 | > 50 | > 50 | 3.24 | > 50 | > 50 | – | – | – | – | 0.48 | – | –
C=C(C)[C@@H]1CC[C@]2(C(=O)NO)CC[C@]3(C)[C@H](CC[C@@H]4[C@@]5(C)CC/C(=N\O)C(C)(C)[C@@H]5CC[C@]43C)[C@@H]12 [Compound XI, 3-Hydroxyimino-N-hydroxy-lup-20(29)-en-28-amide] | > 50 | > 50 | 17.5 | 2.58 | > 50 | > 50 | – | – | – | – | 0.31 | – | showed agonistic TGR5 activity
CC1(C)C2CC[C@]3(C)[C@H](C(=O)C=C4[C@H]5C[C@@](C)(C(=O)NO)CC[C@]5(C)CC[C@]43C)[C@@]2(C)CC[C@@H]1O (some centres unmarked) [Compound XX, reference compound] | – | – | – | > 50 | – | – | do not activate the HIF-1α pathway | – | – | – | – | – | –
CC1(C)[C@@H](O)CC[C@]2(C)[C@H]3C(=O)C=C4[C@@H]5C[C@@](C)(C(=O)O)CC[C@]5(C)CC[C@@]4(C)[C@]3(C)CC[C@@H]12 [Glycyrrethinic acid, reference compound] | – | – | – | > 50 | – | – | do not activate the HIF-1α pathway | – | – | – | – | – | –

The next lines start with results.

IC50 (NF-κB) [µM] | IC50 (STAT3) [µM] | EC50 (TGR5) [µM] | SMILES | EC50 (HIF-1α; Fibroblast) [µM] | EC50 (Nrf2 [1]) [µM] | IC50 (Nrf2 [2]) [µM] | activation of the EPO promoter as a surrogate marker of HIF-1α pathway activation (in words) (HIF-1α) | inhibition of the NF-κB pathway induced by TNFα (in words) (NF-κB) | inhibition of the STAT3 pathway induced by IFNγ (in words) (STAT3) | activation of the Nrf2 pathway (in words) (Nrf2 [1]) | Efficacy HIF-1α (IRA coefficient) (HIF-1α) | EC50 (HIF-1α) [µM] | agonistic TGR5 activity (in words) (TGR5)
> 50 | > 50 | > 50 | CC(=O)O[C@H]1CC[C@]2(C)[C@H]3C(=O)C=C4[C@@H]5CC(C)(C)CC[C@]5(C(=O)NO)CC[C@@]4(C)[C@]3(C)CC[C@H]2C1(C)C [Compound V, (3β) 3-Acetyloxy-11-oxo-olean-12-en-N-hydroxy-28-amide] | 6.71 | > 50 | > 50 | – | – | – | – | 0.16 | – | –
> 50 | > 50 | > 50 | CC1(C)CC[C@]2(C(=O)NO)CC[C@]3(C)C(=CC[C@@H]4[C@@]5(C)CC=CC(C)(C)[C@@H]5CC[C@]43C)[C@@H]2C1 [Compound VI, Oleana-2,12-dien-N-hydroxy-28-amide] | – | > 50 | > 50 | – | – | – | – | 0.16 | 5 | –
> 50 | > 50 | 5.91 | C[C@H]1[C@H](C)CC[C@]2(C(=O)NO)CC[C@]3(C)C(=CC[C@@H]4[C@@]5(C)CC[C@H](O)C(C)(C)C5CC[C@]43C)[C@H]12 (stereo partly drawn) [Compound XII, (3β) 3-Hydroxy-N-hydroxy-urs-12-en-28-amide] | 7.69 | > 50 | > 50 | – | – | – | – | 0.17 | – | showed agonistic TGR5 activity
> 50 | > 50 | > 50 | C[C@H]1[C@H](C)CC[C@]2(C(=O)NO)CC[C@]3(C)C(=CC[C@@H]4[C@@]5(C)CC/C(=N/O)C(C)(C)C5CC[C@]43C)[C@H]12 (some centres unmarked) [Compound XIII, 3 Hydroxyimino-N-hydroxy-urs-12-en-28-amide] | 8.93 | > 50 | > 50 | – | – | – | – | 0.10 | – | –
> 50 | > 50 | – | C[C@H]1[C@H](C)CC[C@]2(C(=O)O)CC[C@]3(C)C(=CC[C@@H]4[C@@]5(C)CC[C@H](O)C(C)(C)[C@@H]5CC[C@]43C)[C@H]12 [Ursolic acid, reference compound] | > 50 | 38.4 | > 50 | None of the natural triterpenoids | – | – | – | – | – | –
